Measured values taken from ChEMBL document CHEMBL5634091, “Cantharidin analogue alleviates dextran sulfate sodium-induced colitis in mice by inhibiting the activation of NF-κB signaling” (Eur J Med Chem, 2023).
Activity calls are given as the source filed them. No cut-off for these calls is given here.

How the values were obtained:
[1] = Inhibition of TNF-alpha induced NF-kappaB activation in HEK293T cells preincubated for 4 hrs and followed by TNF-alpha stimulation and measured after 4 hrs by dual-luciferase reporter assay; assay type: cell-based; conditions: Homo sapiens, HEK-293T
RAW264.7 [2] = assay: Antiinflammatory activity in mouse RAW264.7 cells assessed as inhibition in LPS/IFNgamma-induced NO production at 200 uM preincubated for 2 hrs followed by LPS/IFNgamma stimulation and measured after 24 hrs by Griess reagent based assay relative to control; assay type: functional; conditions: time 26 hrs
[3] = Cytotoxicity against TNF-alpha induced HEK293T cells assessed as inhibition of cell growth preincubated for 24 hrs followed by TNFalpha stimulation and measured after 4 hrs by SRB assay; assay type: toxicity, cell-based, HEK-293T; conditions: human, HEK293T cells induced with TNF-alpha; time 28 hrs
RAW264.7 [4] = assay: Antiinflammatory activity in mouse RAW264.7 cells assessed as inhibition in LPS/IFNgamma-induced NO production preincubated for 2 hrs followed by LPS/IFNgamma stimulation and measured after 24 hrs by Griess reagent based assay; assay type: functional, cell-based
[5] = Selectivity index, ratio of CC50 for cytotoxicity against TNF-alpha induced HEK293T cells to IC50 for inhibition of TNF-alpha induced NF-kappaB activation in HEK293T cells; assay type: toxicity, cell-based; conditions: human, HEK293T cells induced with TNF-alpha; read-out: Ratio IC50
[6] = Cytotoxicity against LPS/IFNgamma induced mouse RAW264.7 cells assessed as inhibition of cell growth preincubated for 24 hrs followed by LPS/IFNgamma stimulation and measured after 24 hrs by SRB assay; assay type: toxicity, cell-based; conditions: RAW264.7 cells induced with LPS/IFNgamma, time 48 hrs
[7] = Selectivity index, ratio of CC50 for cytotoxicity against LPS/IFNgamma induced mouse RAW264.7 cells to IC50 for antiinflammatory activity in mouse RAW264.7 cells assessed as inhibition in LPS/IFNgamma-induced NO production; assay type: toxicity, cell-based; conditions: RAW264.7 cells induced with LPS/IFNgamma, read-out: Ratio IC50
[8] = Toxicity in Kunming mouse assessed as number of mouse survived at 53 mg/kg, po measured for 15 days; assay type: organism-based; conditions: in vivo, 360 h, time 15 day
[9] = Toxicity in po dosed Kunming mouse assessed as maximum tolerated dose; assay type: organism-based; conditions: in vivo
[10] = Toxicity in Kunming mouse assessed as increase in body weight at 42 mg/kg, po measured for 15 days (reference value: 12.38%); assay type: organism-based; conditions: in vivo, 360 h, time 15 day
[11] = Toxicity in Kunming mouse assessed as number of mouse survived at 42 mg/kg, po measured for 15 days; assay type: organism-based; conditions: in vivo, 360 h, time 15 day
[12] = Toxicity in Kunming mouse assessed as number of mouse survived at 82 mg/kg, po measured for 15 days; assay type: organism-based; conditions: in vivo, 360 h, time 15 day
Mus musculus = species: Mus musculus; assay: Anti-inflammatory activity in C57BL/6 mouse model of DSS-induced acute ulcerative colitis; assay type: functional, organism-based
[13] = Toxicity in Kunming mouse assessed as number of mouse survived at 66 mg/kg, po measured for 15 days; assay type: organism-based; conditions: in vivo, 360 h, time 15 day
[14] = Toxicity in Kunming mouse assessed as number of mouse survived at 57 mg/kg, po measured for 15 days; assay type: organism-based; conditions: in vivo, 360 h, time 15 day
[15] = Toxicity in Kunming mouse assessed as increase in body weight at 40 mg/kg, po measured for 15 days (reference value: 12.38%); assay type: organism-based; conditions: in vivo, 360 h, time 15 day
[16] = Toxicity in Kunming mouse assessed as number of mouse survived at 40 mg/kg, po measured for 15 days; assay type: organism-based; conditions: in vivo, 360 h, time 15 day
[17] = Toxicity in Kunming mouse assessed as number of mouse survived at 117 mg/kg, po measured for 15 days; assay type: organism-based; conditions: in vivo, 360 h, time 15 day
[18] = Toxicity in Kunming mouse assessed as effect on kidney by measuring systemic edema at 117 mg/kg, po measured for 15 days; assay type: organism-based; conditions: in vivo, 360 h, time 15 day

Question: For `C1=CC2OC1c1ccccc12`, which IC50 [1] is on record?
Answer: 19.7 µM

Question: And the inhibition at 200 µM (RAW264.7 [2])?
Answer: ~30%

Question: What about the CC50 at 4 h [3] of the same molecule?
Answer: 111 µM

Question: What about the IC50 (RAW264.7 [4]) of the same molecule?
Answer: > 200 µM

Question: What about the selectivity ratio [5] of the same molecule?
Answer: 5.65

Question: And the CC50 at 24 h [6]?
Answer: > 200 µM

Question: Which IC50 (RAW264.7 [4]) does the source give for `CSC(=N)N` here?
Answer: 12.6 µM

Question: What about the selectivity ratio [7] of the same molecule?
Answer: > 15.8

Question: What about the CC50 at 24 h [6] of the same molecule?
Answer: > 200 µM

Question: Which IC50 [1] does the source give for `CCOC(=O)C1=C(C(=O)OCC)C2OC1CC2C#Cc1ccc(OC)cc1` (configuration not stated) here?
Answer: 12.1 µM

Question: And the CC50 at 4 h [3]?
Answer: 52.8 µM

Question: And the IC50 (RAW264.7 [4])?
Answer: 5.07 µM

Question: What about the selectivity ratio [7] of the same molecule?
Answer: 3.73

Question: What about the selectivity ratio [5] of the same molecule?
Answer: 4.34

Question: And the CC50 at 24 h [6]?
Answer: 18.9 µM

Question: Which IC50 [1] does the source give for `O=C1OC(=O)C2C3CCC(O3)C12` (configuration not stated) [DEMETHYL-CANTHARIDIN] here?
Answer: 105 µM

Question: And the Activity [8]?
Answer: 0

Question: And the CC50 at 4 h [3]?
Answer: > 200 µM

Question: What about the MTD [9] of the same molecule?
Answer: 53 mg/kg

Question: And the Activity [10]?
Answer: 15.62%

Question: And the Activity [11]?
Answer: 0

Question: What about the Activity [12] of the same molecule?
Answer: 3

Question: And the IC50 (RAW264.7 [4])?
Answer: 99.1 µM

Question: What about the selectivity ratio [7] of the same molecule?
Answer: 0.79

Question: And the Activity (Mus musculus)?
Answer: inactive

Question: And the Activity [13]?
Answer: 1

Question: What about the selectivity ratio [5] of the same molecule?
Answer: > 1.91

Question: And the CC50 at 24 h [6]?
Answer: 78.1 µM

Question: With `COC(=O)C1=C(C(=O)OC)C2C=CC1O2` as the molecule, how does the IC50 [1] read?
Answer: 96.1 µM

Question: And the CC50 at 4 h [3]?
Answer: 99.9 µM

Question: What about the MTD [9] of the same molecule?
Answer: 40 mg/kg

Question: What about the Activity [14] of the same molecule?
Answer: 1

Question: What about the Activity [12] of the same molecule?
Answer: 1

Question: What about the IC50 (RAW264.7 [4]) of the same molecule?
Answer: 4.12 µM

Question: What about the selectivity ratio [7] of the same molecule?
Answer: 3.1

Question: And the Activity (Mus musculus)?
Answer: inactive

Question: What about the Activity [15] of the same molecule?
Answer: 10.6%

Question: What about the selectivity ratio [5] of the same molecule?
Answer: 1.04

Question: What about the Activity [16] of the same molecule?
Answer: 0

Question: And the Activity [17]?
Answer: 3

Question: And the Activity [18]?
Answer: Toxic

Question: And the CC50 at 24 h [6]?
Answer: 12.8 µM

Question: Which results are given for `COc1ccc(C#CC2CC3OC2c2cc(OC)c(OC)cc23)cc1` (configuration not stated)?
Answer: IC50 [1]: 133 µM; CC50 at 4 h [3]: 198 µM; IC50 (RAW264.7 [4]): 185 µM; selectivity ratio [7]: 0.99; selectivity ratio [5]: 1.48; CC50 at 24 h [6]: 184 µM

Question: Which results are given for `COC(=O)C1=C(C(=O)OC)C2OC1CC2C#Cc1ccc(OC)cc1` (configuration not stated)?
Answer: IC50 [1]: 24.9 µM; CC50 at 4 h [3]: 22.4 µM; IC50 (RAW264.7 [4]): 1.81 µM; selectivity ratio [7]: 4.15; selectivity ratio [5]: 0.9; CC50 at 24 h [6]: 7.51 µM

Question: Which IC50 [1] does the source give for `CCOC(=O)C1=C(C(=O)OCC)C2C=CC1O2` here?
Answer: 33.7 µM

Question: What about the CC50 at 4 h [3] of the same molecule?
Answer: 59.9 µM

Question: And the MTD [9]?
Answer: 57 mg/kg

Question: What about the Activity [14] of the same molecule?
Answer: 0

Question: What about the Activity [12] of the same molecule?
Answer: 1

Question: What about the IC50 (RAW264.7 [4]) of the same molecule?
Answer: 3.86 µM

Question: What about the selectivity ratio [7] of the same molecule?
Answer: 5.28

Question: And the Activity (Mus musculus)?
Answer: inactive

Question: What about the Activity [15] of the same molecule?
Answer: 2.31%

Question: And the selectivity ratio [5]?
Answer: 1.77

Question: And the Activity [16]?
Answer: 0

Question: What about the Activity [17] of the same molecule?
Answer: 3

Question: What about the Activity [18] of the same molecule?
Answer: Toxic

Question: And the CC50 at 24 h [6]?
Answer: 20.4 µM

Question: Which results are given for `Brc1cc2c(cc1Br)C1C=CC2O1`?
Answer: IC50 [1]: 71.8 µM; inhibition at 200 µM (RAW264.7 [2]): ~30%; CC50 at 4 h [3]: 194 µM; IC50 (RAW264.7 [4]): > 200 µM; selectivity ratio [5]: 2.7; CC50 at 24 h [6]: > 200 µM

Question: With `COc1ccc(C#CC2CC3OC2c2cc(Br)c(Br)cc23)cc1` (configuration not stated) as the molecule, how does the IC50 [1] read?
Answer: 39.4 µM

Question: And the CC50 at 4 h [3]?
Answer: 140 µM

Question: And the IC50 (RAW264.7 [4])?
Answer: 186 µM

Question: And the selectivity ratio [7]?
Answer: 1.07

Question: And the selectivity ratio [5]?
Answer: 4.26

Question: What about the CC50 at 24 h [6] of the same molecule?
Answer: 198 µM

Question: For `COc1ccc(C#CC2CC3OC2c2c(OC)ccc(OC)c23)cc1` (configuration not stated), which IC50 [1] is on record?
Answer: 137 µM

Question: And the CC50 at 4 h [3]?
Answer: 199 µM

Question: And the IC50 (RAW264.7 [4])?
Answer: 190 µM

Question: What about the selectivity ratio [7] of the same molecule?
Answer: 1.05

Question: And the selectivity ratio [5]?
Answer: 1.45

Question: And the CC50 at 24 h [6]?
Answer: 200 µM

Question: What does the source list for `COC(=O)C1=C(C(=O)OC)C2OC1CC2C#Cc1ccccc1` (configuration not stated)?
Answer: IC50 [1]: 19.3 µM; CC50 at 4 h [3]: 62.1 µM; IC50 (RAW264.7 [4]): 3.72 µM; selectivity ratio [7]: 1.53; selectivity ratio [5]: 3.21; CC50 at 24 h [6]: 5.69 µM
